Columns and labels:
[1] = tested on: anti-CD3 antibody-induced cytokine release syndrome (CRS) in BALB/c mice; assay: Anti-CD3 antibody-induced cytokine release syndrome in BALB/c mice; assay type: in vivo; conditions: 60 and 120 mg/kg PO 1 h before anti-CD3 (10 μg IV); plasma 1.5 h after anti-CD3; FIG. 1
Text: JAK1 pathway inhibitors can be tested for efficacy against CRS according to an in vivo assay described in Ferran, C. et al. Clin. Exp. Immunol. 1991, 86, 537-543. Specifically, this study can test the ability of a compound to reduce or ameliorate anti-CD3 antibody-induced cytokine release syndrome (CRS) in BALB/c mice. The antibody, clone 145-2C11, is an immunoglobin G (IgG) hamster MoAb that is specific for the ε chain of the CD3 murine molecule (Léo, O. et al., Proc. Natl. Acad. Sci. USA, 1987, […], 1374). Treatment with 145-2C11 induces high affinity IL-2 receptors at the surface of spleen T-cells and results in a release of some cytokines such as tumor necrosis factor (TNF-α), IL-2, IL-3, IL-6, and interferon-gamma (IFN-γ) (Ferran, et al. Eur. J. Immunol. 1990, 20, 509-515 and Algre, M. et al., Eur. J. Immunol., 1990, 707). […]
The main objective of this study was to test the ability of a JAK1 pathway inhibitor (e.g., Compound 1) to reduce or ameliorate anti-CD3 antibody-induced cytokine release syndrome (CRS) in BALB/c mice. […] Animals were weighed prior to test article dosing, and monitored for the duration of the experiment. […]
After the administration of the anti-CD3 antibody, animals were closely monitored for signs of distress due to the resulting systemic inflammatory response. […]

[2] = molecular target: human JAK2 (a.a. 828-1132) (Homo sapiens (Human), UniProt O60674); assay: In vitro JAK kinase assay (HTRF), JAK2, for JAK2/JAK1 ratio; assay type: biochemical; conditions: IC50 ratio, 1 mM ATP
Description: (§1) The catalytic activity of JAK1, JAK2 or JAK3 was assayed by measuring the phosphorylation of a biotinylated peptide. The phosphorylated peptide was detected by homogenous time resolved fluorescence (HTRF). […] Reactions are carried out at room temperature for 1 hour and then stopped with 20 μL 45 mM EDTA, 300 nM SA-APC, 6 nM Eu-Py20 in assay buffer (Perkin Elmer, Boston, Mass.). Binding to the Europium labeled antibody takes place for 40 minutes and HTRF signal was measured on a Fusion plate reader (Perkin Elmer, Boston, Mass.).

[3] = tested on: Con A-induced cytokine release syndrome (CRS) in BALB/c mice; assay: Concanavalin A induced cytokine release syndrome in BALB/c mice; assay type: in vivo; conditions: plasma 2 h after Con A
Text: Concanavalin A (Con A) is a selective T lymphocyte mitogen resulting in broad inflammatory cytokine release and proliferation of CD4 and CD8 T-cells. Injection of Con-A has been shown in the literature to induce cytokine release syndrome and serves as a model with which to test the efficacy of cytokine release syndrome therapies (Gantner, F. at al. Hepatology, 1995, 21, 190-198). The mitogen response is dependent on expression of the T-cell receptor.
In particular, this study tests the ability of a selective JAK1 inhibitor (e.g., Compound 1, Table 1) to reduce or ameliorate Con A-induced cytokine release syndrome (CRS) in BALB/c mice. A total of forty (40) BALB/c mice were used for this one day study. Animals were weighed prior to test article dosing, and monitored for the duration of the experiment. On day 0, Sixty (60) minutes prior to Con A administration, vehicle (0.5% methylcellulose) or Compound 1 (60 and 120 mg/kg) was given in a single dose via oral gavage (PO) to animals in groups 2-4 as detailed in Table 2A. Group 1 served as naïve controls and were not treated. Following the […] pre-treatment with vehicle or Compound 1, animals in Groups 2-4 were administered 20 mg/kg of Con A via intravenous injection (IV) in order to induce CRS. All animals were euthanized via CO2 inhalation two hours after Con A administration. Whole blood was collected via cardiac puncture into K2EDTA tubes and stored on ice until plasma processing occurs. Plasma was collected and stored at −80° C. until cytokine multiplex was performed.
Animals were weighed and Con-A dose (20 mg/kg) calculated.
Vehicle and Compound 1 were prepared at corresponding doses.
On day 0, animals were dosed with vehicle or Compound 1, as in Table 2A. Group 1 served as the naïve controls and were not treated. Group 2 received a single dose of vehicle (0.5% methylcellulose) via PO at 0.1 mL/20 g. Group 3 received a single dose of 60 mg/kg Compound 1 via PO at 0.1 mL/20 g. Group 4 received a single dose of 120 mg/kg Compound 1 via PO at 0.1 mL/20 g.
Sixty (60) minutes after test article administration, Con-A was administered via IV injection to Groups 2-4. Each animal in Groups 2-4 received 20 mg/kg of Con-A in 0.2 mL.
After the administration of Con-A, animals were closely monitored for signs of distress due to the resulting systemic inflammatory response.
Two hours after Con-A administration all animals were euthanized by CO2 inhalation.
Upon sacrifice, whole blood was collected from each animal via cardiac puncture into K2EDTA tubes. The blood was centrifuged and the plasma collected in cryovials. The plasma was frozen and stored at −80° C. for the downstream cytokine multiplex assay.
Plasma samples are thawed on ice and used for a cytokine multiplex according to the manufacturer's protocol (ThermoFisher).
An unpaired one-way analysis of variance (ANOVA) incorporating Sidak's multiple test comparison was performed using GraphPad Prism (version 4.00; GraphPad Software, San Diego Calif., USA). A value of p<0.05 was considered significant.

[4] = molecular target: human JAK1 (a.a. 837-1142) (Homo sapiens, UniProt P23458); assay: In vitro JAK kinase assay (HTRF), JAK1; assay type: biochemical; conditions: 1 mM ATP
Description: as §1

Sequence of human JAK2 (a.a. 828-1132) (O60674 828-1132): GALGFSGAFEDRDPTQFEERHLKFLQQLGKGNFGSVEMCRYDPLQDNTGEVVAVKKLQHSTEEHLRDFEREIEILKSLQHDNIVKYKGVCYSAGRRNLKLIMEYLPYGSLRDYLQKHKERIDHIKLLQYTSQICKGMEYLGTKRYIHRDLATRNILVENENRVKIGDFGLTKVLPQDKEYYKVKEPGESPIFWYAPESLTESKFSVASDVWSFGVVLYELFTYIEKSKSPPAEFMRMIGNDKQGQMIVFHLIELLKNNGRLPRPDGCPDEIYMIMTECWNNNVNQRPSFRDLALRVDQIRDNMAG

JAK2/JAK1 [2]: >10 | IC50 [4]: < 10 nM
SMILES: N#CCC1(n2cc(-c3ncnc4[nH]ccc34)cn2)CN(C2CCN(C(=O)c3ccnc(C(F)(F)F)c3F)CC2)C1 [Compound 1, {1-{1-[3-Fluoro-2-(trifluoromethyl)isonicotinoyl]piperidin-4-yl}-3-[4-(7H-pyrrolo[2,3-d]pyrimidin-4-yl)-1H-pyrazol-1-yl]azetidin-3-yl}acetonitrile]
IL-6 concentrations within the blood compartment [1]: dose-dependently inhibited | IL-6 concentrations within the blood compartment ([3]; 60 and 120 mg/kg PO 60 min before Con A (20 mg/kg IV), FIG. 2A): dose-dependently inhibited | IFNγ (T-cell derived cytokine) ([3]; 60 and 120 mg/kg PO before Con A, FIG. 2B): significantly inhibited | GM-CSF (T-cell derived cytokine) ([3]; 60 and 120 mg/kg PO before Con A, FIG. 2C): significantly inhibited | IL-12 (monocyte and/or macrophage derived cytokine) ([3]; 60 and 120 mg/kg PO before Con A, FIG. 3A): Statistically significant dose-dependent IL-12 reduction | IL-1β (monocyte and/or macrophage derived cytokine) ([3]; 60 and 120 mg/kg PO before Con A, FIG. 3B): trends for treatment effect | IL-18 (monocyte and/or macrophage derived cytokine) ([3]; 60 and 120 mg/kg PO before Con A, FIG. 3C): trends for treatment effect | IL-5 ([3]; 60 and 120 mg/kg PO before Con A, FIG. 4): unaffected
